Results: the NIST ThermoML archive (doi:10.1016/j.fluid.2017.09.014)

Experiment: xn = mol fraction of the nth substance listed
Settings: Vibrating tube method, x2 = 0.9503

O=S=O [sulfur dioxide] + O=C=O
Settings | mass density [kg/m3]
322.49 K, 26001 kPa, Fluid (supercritical or subcritical phases) | 875.4
322.49 K, 26517 kPa, Fluid (supercritical or subcritical phases) | 878.8
322.49 K, 27508 kPa, Fluid (supercritical or subcritical phases) | 886.3
322.49 K, 28018 kPa, Fluid (supercritical or subcritical phases) | 889.5
322.49 K, 29025 kPa, Fluid (supercritical or subcritical phases) | 896.4
322.49 K, 29507 kPa, Fluid (supercritical or subcritical phases) | 899.6
322.5 K, 17499 kPa, Fluid (supercritical or subcritical phases) | 793.5
322.5 K, 18503 kPa, Fluid (supercritical or subcritical phases) | 806.6
322.5 K, 19491 kPa, Fluid (supercritical or subcritical phases) | 818.5
322.5 K, 24497 kPa, Fluid (supercritical or subcritical phases) | 864.4
322.5 K, 25003 kPa, Fluid (supercritical or subcritical phases) | 867.7
322.51 K, 11504 kPa, Fluid (supercritical or subcritical phases) | 649.9
322.51 K, 12003 kPa, Fluid (supercritical or subcritical phases) | 672.3
322.51 K, 16502 kPa, Fluid (supercritical or subcritical phases) | 779.1
322.51 K, 17005 kPa, Fluid (supercritical or subcritical phases) | 786.2
322.52 K, 14000 kPa, Fluid (supercritical or subcritical phases) | 731.9
322.52 K, 14504 kPa, Fluid (supercritical or subcritical phases) | 742.9
322.52 K, 15012 kPa, Fluid (supercritical or subcritical phases) | 753.2
322.52 K, 15501 kPa, Fluid (supercritical or subcritical phases) | 761.8
322.52 K, 16003 kPa, Fluid (supercritical or subcritical phases) | 770.9
322.53 K, 12505 kPa, Fluid (supercritical or subcritical phases) | 691.1
322.53 K, 13501 kPa, Fluid (supercritical or subcritical phases) | 720.4
322.54 K, 13000 kPa, Fluid (supercritical or subcritical phases) | 706.7
352.93 K, 202 kPa, Gas | 3
352.93 K, 6001 kPa, Gas | 114.8
352.94 K, 1742 kPa, Gas | 28.6
352.94 K, 2504 kPa, Gas | 41.8
352.94 K, 4003 kPa, Gas | 70.6
352.94 K, 4493 kPa, Gas | 80.5
352.94 K, 6516 kPa, Gas | 127.7
352.94 K, 7017 kPa, Gas | 140.9
352.94 K, 7498 kPa, Fluid (supercritical or subcritical phases) | 154.1
352.94 K, 8038 kPa, Fluid (supercritical or subcritical phases) | 170.3
352.94 K, 9008 kPa, Fluid (supercritical or subcritical phases) | 201.9
352.95 K, 306 kPa, Gas | 4.6
352.95 K, 402 kPa, Gas | 6
352.95 K, 511 kPa, Gas | 7.6
352.95 K, 740 kPa, Gas | 11.4
352.95 K, 1507 kPa, Gas | 24.3
352.95 K, 2002 kPa, Gas | 33
352.95 K, 2248 kPa, Gas | 37
352.95 K, 2800 kPa, Gas | 47.2
352.95 K, 3009 kPa, Gas | 51
352.95 K, 4997 kPa, Gas | 91.5
352.95 K, 5490 kPa, Gas | 102.6
352.95 K, 9230 kPa, Fluid (supercritical or subcritical phases) | 209.5
352.95 K, 12000 kPa, Fluid (supercritical or subcritical phases) | 321.9
352.95 K, 12505 kPa, Fluid (supercritical or subcritical phases) | 346.8
352.95 K, 14502 kPa, Fluid (supercritical or subcritical phases) | 447.3
352.95 K, 15497 kPa, Fluid (supercritical or subcritical phases) | 493.2
352.95 K, 16515 kPa, Fluid (supercritical or subcritical phases) | 535.1
352.95 K, 17520 kPa, Fluid (supercritical or subcritical phases) | 569.4
352.95 K, 19511 kPa, Fluid (supercritical or subcritical phases) | 624.5
352.95 K, 21993 kPa, Fluid (supercritical or subcritical phases) | 677.2
352.95 K, 22493 kPa, Fluid (supercritical or subcritical phases) | 686.4
352.95 K, 23011 kPa, Fluid (supercritical or subcritical phases) | 694.8
352.95 K, 24538 kPa, Fluid (supercritical or subcritical phases) | 717.4
352.95 K, 25002 kPa, Fluid (supercritical or subcritical phases) | 723.7
352.95 K, 31494 kPa, Fluid (supercritical or subcritical phases) | 793.2
352.96 K, 982 kPa, Gas | 15.1
352.96 K, 1248 kPa, Gas | 19.9
352.96 K, 3495 kPa, Gas | 60.3
352.96 K, 8507 kPa, Fluid (supercritical or subcritical phases) | 185.5
352.96 K, 10075 kPa, Fluid (supercritical or subcritical phases) | 238.1
352.96 K, 11001 kPa, Fluid (supercritical or subcritical phases) | 276.4
352.96 K, 12998 kPa, Fluid (supercritical or subcritical phases) | 371.8
352.96 K, 13501 kPa, Fluid (supercritical or subcritical phases) | 397.6
352.96 K, 14004 kPa, Fluid (supercritical or subcritical phases) | 422.3
352.96 K, 15003 kPa, Fluid (supercritical or subcritical phases) | 470.1
352.96 K, 16004 kPa, Fluid (supercritical or subcritical phases) | 514.7
352.96 K, 17006 kPa, Fluid (supercritical or subcritical phases) | 552.6
352.96 K, 19011 kPa, Fluid (supercritical or subcritical phases) | 611.7
352.96 K, 20014 kPa, Fluid (supercritical or subcritical phases) | 636.9
352.96 K, 20490 kPa, Fluid (supercritical or subcritical phases) | 647.4
352.96 K, 20999 kPa, Fluid (supercritical or subcritical phases) | 657.9
352.96 K, 21521 kPa, Fluid (supercritical or subcritical phases) | 668.5
352.96 K, 23524 kPa, Fluid (supercritical or subcritical phases) | 703.1
352.96 K, 24023 kPa, Fluid (supercritical or subcritical phases) | 710.4
352.96 K, 25555 kPa, Fluid (supercritical or subcritical phases) | 731.2
352.96 K, 26036 kPa, Fluid (supercritical or subcritical phases) | 736.4
352.96 K, 27501 kPa, Fluid (supercritical or subcritical phases) | 752.6
352.96 K, 28006 kPa, Fluid (supercritical or subcritical phases) | 758.3
352.96 K, 28507 kPa, Fluid (supercritical or subcritical phases) | 764.2
352.96 K, 29492 kPa, Fluid (supercritical or subcritical phases) | 773.9
352.96 K, 29991 kPa, Fluid (supercritical or subcritical phases) | 779
352.96 K, 31058 kPa, Fluid (supercritical or subcritical phases) | 789.4
352.96 K, 31993 kPa, Fluid (supercritical or subcritical phases) | 797.6
352.96 K, 33014 kPa, Fluid (supercritical or subcritical phases) | 805.8
352.96 K, 33519 kPa, Fluid (supercritical or subcritical phases) | 809.8
352.96 K, 36996 kPa, Fluid (supercritical or subcritical phases) | 835.2
352.97 K, 10506 kPa, Fluid (supercritical or subcritical phases) | 255.3
352.97 K, 11505 kPa, Fluid (supercritical or subcritical phases) | 298.8
352.97 K, 18007 kPa, Fluid (supercritical or subcritical phases) | 583.3
352.97 K, 18500 kPa, Fluid (supercritical or subcritical phases) | 597.8
352.97 K, 26597 kPa, Fluid (supercritical or subcritical phases) | 742.8
352.97 K, 29001 kPa, Fluid (supercritical or subcritical phases) | 768.7
352.97 K, 30512 kPa, Fluid (supercritical or subcritical phases) | 784.7
352.97 K, 32552 kPa, Fluid (supercritical or subcritical phases) | 802.4
352.97 K, 34055 kPa, Fluid (supercritical or subcritical phases) | 814.5
352.97 K, 35014 kPa, Fluid (supercritical or subcritical phases) | 821.4
352.97 K, 35510 kPa, Fluid (supercritical or subcritical phases) | 824.7
352.97 K, 36496 kPa, Fluid (supercritical or subcritical phases) | 831.8
352.97 K, 37499 kPa, Fluid (supercritical or subcritical phases) | 838.7
352.97 K, 38520 kPa, Fluid (supercritical or subcritical phases) | 845.7
352.97 K, 39009 kPa, Fluid (supercritical or subcritical phases) | 848.1
352.98 K, 27043 kPa, Fluid (supercritical or subcritical phases) | 747.4
352.98 K, 34563 kPa, Fluid (supercritical or subcritical phases) | 818.1
352.98 K, 36013 kPa, Fluid (supercritical or subcritical phases) | 828.1
352.98 K, 38023 kPa, Fluid (supercritical or subcritical phases) | 842.1
352.98 K, 39300 kPa, Fluid (supercritical or subcritical phases) | 850.2
352.98 K, 39330 kPa, Fluid (supercritical or subcritical phases) | 850.5
